# Reference: patent US12702697B2, “Compositions and methods for treatment of headache disorders and neuropathic pain” (Washington University, priority 2019, dated 2026)
# Key:
# [1] = tested on: NTG/NO donor- or mTBI-induced cutaneous allodynia in rodents; conditions: cited from earlier work; for persistent cephalic mechanical hypersensitivity induced by repeated isosorbide dinitrate: Dallel R, et al., Cephalalgia 2018
# [2] = tested on: sumatriptan-induced cutaneous hypersensitivity in mice; experiment: Mouse model of medication overuse headache (repeated sumatriptan); format: in vivo; conditions: daily sumatriptan 0.6 mg/kg i.p.; male and female C57BL/6J
# Procedure: Mouse model of medication overuse headache. After measuring baseline nociceptive responses, mice received daily i.p. injections of sumatriptan succinate (0.6 mg/kg; Fresenius Kabi, Lake Zurich, IL44). Daily ld-IL2 or saline were administered after mice received 2 sumatriptan injections. Facial and hindpaw mechanical thresholds were measured every 2 days. Note that on the days that the mouse behaviors were tested, sumatriptan and/or IL2 were always injected after completing the behavioral tests.
# (§1) Responses to mechanical stimuli on the hindpaw. Mice were habituated in individual clear plexiglass boxes (11×11×15 cm) for 1 to 2 hours. A series of calibrated von Frey filaments was used to apply mechanical stimuli to the plantar surface of the hindpaws. The up-down paradigm was used to determine the 50% withdrawal threshold. The thresholds for both hindpaws were averaged to yield a single value for each mouse.
# (§2) Withdrawal responses to facial mechanical stimuli. The hair on mouse forehead (above and between 2 eyes) was shaved the day before testing. On the test day, the experimenter gently held the mouse on the palm with minimal restraint and applied the calibrated von Frey filament perpendicularly to the shaved skin, causing the filament to bend for 5 seconds. A positive response was determined by the following criteria as previously described: mouse vigorously stroked its face with the forepaw, head withdrawal from the stimulus, or head shaking (Elliott M B et al., Headache 2012; 52:966-84). The up-down paradigm was used to determine the 50% withdrawal threshold.
# [3] = tested on: Treg cells and CD3+ T cells in dura, TG and DRG; experiment: Immunohistochemistry of CD3+ T cells and EGFP+ Treg cells in dura, TG, DRG and cervical/medullary dorsal horn; format: in vivo, mouse
# Procedure: Tissue preparation, immunohistochemistry, and image analysis. Mice were euthanized with i.p. injection of barbiturate (200 mg/kg) and were transcardially perfused with warm 0.1 M phosphate buffered saline (pH 7.2) followed by cold 4% formaldehyde in 0.1 M phosphate buffer (pH 7.2) for fixation. Trigeminal ganglia, lumbar L4 DRG, and the tissues containing the cervical/medullary dorsal horn (from obex to C3 cervical spinal cord) were collected and sectioned at […] in the transverse plane, collected on Superfrost Plus glass slides in sequence and stored at […]
# The dura was carefully dissected from the skull using forceps and stained as whole mount. T cells were identified by the rat anti-CD3 antibody (clone 17A2, 1:200; eBioscience, San Diego, CA), and Treg cells were identified with the chicken anti-EGFP (1:1000; AVES Lab, Tigard, OR) antibody in tissues from DEREG mice. […] To quantify CD31 T cells and Treg cells on the dura, we took random, nonoverlapping images (10 per mouse) in areas adjacent to the middle meningeal artery (MMA). To quantify T cells and Treg cells in TG, DRG, and cervical/medullary dorsal horn, all cells on individual sections were counted, and the number was multiplied by 4 to obtain the total number of cells per ganglion in each mouse. […] Representative images were adjusted for contrast and brightness using the same parameter within individual experiments. No other manipulations were made to the images. Image analysis was performed with experimenters blinded to the experimental groups.
# [4] = tested on: NTG-induced skin hypersensitivity in mice; experiment: Mouse model of chronic migraine (repetitive NTG): hindpaw and facial von Frey thresholds, cheek acetone test; format: in vivo
# Procedure: Mouse model of chronic migraine and drug treatments: After measuring baseline nociceptive responses, mice received repetitive intraperitoneal (i.p.) injections of NTG (10 mg/kg in saline with 1% propylene glycol) or vehicle (saline with 1% propylene glycol in saline, 10 mL/kg) every 2 days for 4 or more times as described previously (Pradhan A A, et al. PAIN 2014; 155:269-74). Nocifensive behaviors were measured 2 days after each injection (before the next treatment). NTG (SDM27; Copperhead Chemical, Tamaqua, PA) was freshly diluted from the stock (10% in propylene glycol, aliquoted in airtight glass vials and stored at 4° C.) with saline for every injection. Recombinant mouse IL2 (carrier-free; Biolegend, San Diego, CA) was freshly diluted from the stock (1 mg/mL aliquots at […]) every day. Each mouse received daily i.p. injection of […] IL2 in […] saline. The control mice received daily i.p. injections of […] saline. In Treg depletion experiment, mice received 1 i.p. injection of antibodies against CD25 ([…], BP0012; BioXcell, West Lebanon, NH11) or control IgG (BP0088; BioXcell). The antibody binds to CD25 on Treg cell membrane and depletes Treg cells through Fcg receptor III-mediated antibody-dependent cellular cytotoxicity and antibody-dependent cellular phagocytosis (Setiady Y Y, et al, Eur J Immunol 2010; 40:780-6). Note that on the days that the mouse behaviors were tested, NTG, IL2 and/or antibodies were always injected after completing the behavioral tests.
# as §1
# Cheek acetone test. The acute nocifensive response to acetone-evoked evaporative cooling on mouse cheek was measured as previously described (Constandil L, et al. J Pain 2012; 13:579-89). The day before testing, both cheeks were shaved (6.5×12 mm) under brief anesthesia (2% isoflurane in 100% oxygen). On the test day, mice were habituated in individual plexiglass cylinders (11-cm diameter, 15-cm height) situated in front of 3-way mirrors for 1 to 2 hours. Acetone ([…]) was applied to the shaved cheeks and immediately returned mice to the cylinders. Time spent wiping the treated area was recorded by a video camera and quantified offline. For individual mice, acetone was applied alternatingly to both cheeks at 10-minute intervals, and the duration of behavior was averaged from 4 applications.
# as §2, with “threshold. […]” for “threshold.”
# [5] = tested on: nerve injury-induced punctate and dynamic allodynia; conditions: cited from earlier work
smiles,measurement,setting,value
CC(C)NCC(O)COc1cccc2ccccc12 (stereo not drawn) [propranolol],persistent facial mechanical hypersensitivity from repeated enhancing of NO signaling,[1]; previous studies,can be blocked
NCCCC[C@H](NC(=O)[C@@H](Cc1cc(Br)c(O)c(Br)c1)NC(=O)N1CCC(N2Cc3ccccc3NC2=O)CC1)C(=O)N1CCN(c2ccncc2)CC1 [olcegepant],persistent cephalic mechanical hypersensitivity induced by repeated isosorbide dinitrate,[1],neither sumatriptan nor CGRP receptor antagonist olcegepant prevents
"CNS(=O)(=O)Cc1ccc2[nH]cc(CCN(C)C)c2c1 [sumatriptan, sumatriptan succinate]",persistent cephalic mechanical hypersensitivity induced by repeated isosorbide dinitrate,[1],neither sumatriptan nor CGRP receptor antagonist olcegepant prevents
same,NTG-induced acute cutaneous allodynia and central sensitization,[1]; rodents,can be blocked
same,facial and hindpaw mechanical sensitivity,[2],persistent facial and hindpaw mechanical hypersensitivity
"O=[N+]([O-])OCC(CO[N+](=O)[O-])O[N+](=O)[O-] [NTG, nitroglycerin, reference compound]",increase in total CD3+ cells in TG,[3]; repeated NTG,2 fold
same,proportion of Treg cells among total T cells in TG,[3]; repeated NTG administration,significantly reduced
same,density of CD3+ T cells in the dura surrounding the MMA or in L4 DRG,"[3]; repeated NTG, C57BL/6J",not altered
same,CD3+ cells per TG,"[3]; repeated NTG, female C57BL/6J, n=6",4135±562 cells per TG
same,reduction of the ratio of Treg cells among CD3+ T cells in mouse TG,[3]; repeated injections of NTG,50%
same,total number of EGFP+ Treg cells in TG and DRG,"[3]; repetitive NTG injections, female DEREG mice",neither was significantly altered
same,mechanical threshold at the periorbital region,"[4]; 2 days after the first NTG injection, female Swiss Webster",substantially reduced
same,50% withdrawal thresholds to von Frey filaments on the hindpaws,"[4]; NTG 10 mg/kg i.p. every 2 days for 5 times, male and female C57BL/6J",induced a progressive and sustained mechanical hypersensitivity
same,facial mechanical threshold 3 hours after systemic NTG,"[4]; NTG 10 mg/kg i.p., naive C57BL/6J, day 1",significantly reduced
same,time facial mechanical hypersensitivity was sustained by repeated NTG injections,[4]; male C57BL/6J,at least 4 weeks
same,duration of acetone-induced cheek wiping,"[4]; repeated NTG, female C57BL/6J",persistent increase
same,duration of acetone-induced cheek wiping,"[4]; repetitive NTG, female Swiss Webster",gradual increase
CN1CC[C@]23c4c5ccc(O)c4O[C@H]2[C@@H](O)C=C[C@H]3[C@H]1C5 [morphine],"nerve injury-induced punctate allodynia, early stage",[5]; <2 weeks post-injury,attenuates
same,nerve injury-induced dynamic allodynia,[5]; all stages,does not respond
same,"nerve injury-induced punctate allodynia, late stage",[5]; late stage,not late stage
CC1(C)O[C@@H]2[C@@H](CO[C@@]3(COS(N)(=O)=O)OC(C)(C)O[C@@H]23)O1 [topiramate],NTG-enhanced behavioral responses to acetone-induced cooling of facial skin,"[1]; daily treatment, mice",can be blocked
